Measured values taken from patent publication US11202792B2, “CD99 inhibitors and their uses” (GEORGETOWN UNIVERSITY, priority 2016, dated 2021).
pIC50: −log10 of the molar value.

Key:
[1] = target: T1, CD99 protein (Homo sapiens, UniProt P14209); assay: Cellular thermal shift assay (CETSA) in TC-71 cell lysates; assay type: binding; settings: 3.0 μmol/L, 30 min, high temperatures vs control lysates
T1 construct: The thermostability of endogenous CD99 protein increased in cell lysates from TC-71 cells; endogenous in cells; host or cells: TC-71 total cell lysate
Description: The CETSA method was used according to Martinez Molina et al. (“Monitoring drug target engagement in cells and tissues using the cellular thermal shift assay,” Science 341: 84-87 (2013)) and Jafari et al. (“The cellular thermal shift assay for evaluating drug target interactions in cells,” Nat Protoc 9:2100-22 (2014)). […] The cell lysates in 60 μL volumes were individually heated in thin wall PCR tubes to the indicated temperatures for 3 min, by using Veriti 96-well Thermal Cycler (Applied Biosystems (Foster City, Calif.)). Samples were then centrifuged at 16,000×g for 30 min at 4° C. to remove insoluble proteins, and 40 ul of the resulting supernatants were transferred into new eppendorf tubes for subsequent SDS-PAGE and immunoblotting analysis.

[2] = system: ES cell lines RDES and TC-71; assay: Secondary functional screen, growth inhibition in ES cell lines; assay type: cell-based; settings: Homo sapiens; 10 μmol/L, 48 h, WST-1
[3] = system: U-2 OS cells; assay: Secondary functional screen, negative control cell line; assay type: cell-based; settings: Homo sapiens, U2OS; 10 μmol/L, 48 h, WST-1; read-out: growth inhibition of OS cell lines (U-2 OS)
[4] = system: A4573 ES cells; assay: Cell viability IC50 (WST-1), A4573; assay type: cell-based, human; settings: Homo sapiens, WST-1, 48 h (FIG. 10B)
[5] = system: A4573 xenografts; assay: Orthotopic A4573 xenograft, i.p. administration; assay type: in vivo, SCID/beige mice
Description: All tumor tissues were fixed in 10% neutral buffered formalin for 24 h, dehydrated through a graded series of alcohols and cleared in xylenes prior to embedding in paraffin. Embedded tissues were cut into 5 μm thick sections and stained with hematoxylin and eosin (H&E). Immunohistochemical staining was performed for CD99 and caspase 3 (cleaved). Five micron sections from formalin fixed paraffin embedded tissues were de-paraffinized with xylenes and rehydrated through a graded alcohol series. Heat induced epitope retrieval was performed by immersing the tissue sections at 98° C. for 60 min in 10 mmol/L citrate buffer (pH 6.0). Immunohistochemical staining was performed using a horseradish peroxidase labeled polymer from Agilent (Santa Clara, Calif.) (#K4001, #K4003) according to manufacturer's instructions. Briefly, slides were treated with 3% hydrogen peroxide and 10% normal goat serum for 10 min each, and exposed to primary antibodies for CD99 (Abcam, #ab8855) at a 1:100 dilution and for caspase 3 (cleaved) (Biocare (Pacheco, Calif.), #CP229A) at a 1:90 dilution in Da Vinci Green for one hour and stained on an DAKO Autostainer. Slides were exposed to the appropriate HRP labeled polymer for 30 min and DAB chromogen (Dako (Santa Clara, Calif.) for 5 min. Slides were counterstained with Hematoxylin (Fisher, Harris Modified Hematoxylin), blued in 1% ammonium hydroxide, dehydrated, and mounted with Acrymount. Consecutive sections with the primary antibody omitted were used as negative controls. The sections were evaluated in a blinded fashion by a board certified pathologist.
The antitumor activity of drugs through intraperitoneal (i.p.) administration given once daily was determined. […] The in vivo potencies of drug treatments were evaluated by event-free survival curves, where tumors that reached 1.0 cm^3 in size considered an event.

[6] = system: MSK1/2 phosphorylation in STA-ET-7.2 and TC-32 cells; assay: MSK1/2 phosphorylation by immunoblot, ES cells; assay type: cell-based, human; settings: 0.6 μmol/L (STA-ET-7.2) or 0.5 μmol/L (TC-32), 24 h, vs vehicle
Description: (§1) In a parallel set of experiment, cells were also treated with 15 μg/mL of either mouse control IgM or CD99 blocking antibody for the same duration. Total cell lysates were analyzed by immunoblotting for MSK1/2 phosphorylation. […] In a parallel set of experiment, cells were transfected with either siRNA control or siRNA targeting the coding region of CD99 protein. Total cell lysates were analyzed after 48 h by immunoblotting for MSK1/2 phosphorylation after cell transfection. […] In FIG. 23D, SCID/beige mice were implanted with TC-71 xenografts in their tibia. […] Tumor lysates were analyzed by immunoblotting for MSK1/2 phosphorylation.
(§2) Quantitative analysis of protein bands was performed using ImageJ 1.48v software. Immunoblotting was performed as described above.

[7] = system: MSK1/2 phosphorylation in MG63.3 and U-2 OS cells; assay: MSK1/2 phosphorylation by immunoblot, OS cells; assay type: cell-based, human; settings: 1.0 μmol/L, 24 h
Description: as §1, §2

T1 sequence (P14209 23-185): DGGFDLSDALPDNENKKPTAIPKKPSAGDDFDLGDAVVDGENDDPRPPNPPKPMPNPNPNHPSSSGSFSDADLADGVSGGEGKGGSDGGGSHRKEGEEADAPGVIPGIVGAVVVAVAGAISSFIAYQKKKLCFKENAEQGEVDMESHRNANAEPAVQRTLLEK

Nc1nc(Cl)nc2c1ncn2[C@@H]1O[C@H](CO)[C@@H](O)[C@@H]1F [clofarabine]
thermostability of endogenous CD99 protein [1]: increased | inhibition at 10 µM [2]: ≥ 70% | inhibition at 10 µM [3]: ≤ 10% | pIC50 [4]: 6.51 | mitotic figures per field ([5]; H&E, 200-fold magnification): ≤ 3 | apoptotic cells ([5]; H&E, confirmed by caspase-3 immunohistochemistry): significant increase | event-free survival ([5]; i.p. once daily, clofarabine 30 mg/kg, vs vehicle): significantly improved | tumor growth ([5]; i.p., clofarabine 30 mg/kg): significant inhibition of tumor growth | phosphorylation levels of MSK1/2 [6]: significantly elevated | phosphorylation levels of MSK1/2 [7]: Neither MG63.3 nor U2-OS cells showed a response
